Data published in the NIST ThermoML archive (doi:10.1021/acs.jced.7b00750).
± gives the expanded uncertainty stated by the source.

Assay: xn = mol fraction of the nth substance listed
Settings: 100 kPa, Liquid, Vibrating tube method

CNC(N)=O [methylurea] + O
Settings | mass density [kg/m3]
274.15 K, x1 = 0.00244 | 1001.77 ± 0.13
274.15 K, x1 = 0.00291 | 1002.12 ± 0.13
274.15 K, x1 = 0.00483 | 1003.58 ± 0.13
274.15 K, x1 = 0.00553 | 1004.11 ± 0.13
274.15 K, x1 = 0.00799 | 1005.96 ± 0.13
274.15 K, x1 = 0.00834 | 1006.21 ± 0.13
274.15 K, x1 = 0.01081 | 1008.05 ± 0.13
274.15 K, x1 = 0.01421 | 1010.56 ± 0.13
275.15 K, x1 = 0.00244 | 1001.8 ± 0.13
275.15 K, x1 = 0.00291 | 1002.15 ± 0.13
275.15 K, x1 = 0.00483 | 1003.6 ± 0.13
275.15 K, x1 = 0.00553 | 1004.13 ± 0.13
275.15 K, x1 = 0.00799 | 1005.98 ± 0.13
275.15 K, x1 = 0.00834 | 1006.23 ± 0.13
275.15 K, x1 = 0.01081 | 1008.07 ± 0.13
275.15 K, x1 = 0.01421 | 1010.58 ± 0.13
276.15 K, x1 = 0.00244 | 1001.82 ± 0.13
276.15 K, x1 = 0.00291 | 1002.17 ± 0.13
276.15 K, x1 = 0.00483 | 1003.62 ± 0.13
276.15 K, x1 = 0.00553 | 1004.14 ± 0.15
276.15 K, x1 = 0.00799 | 1005.98 ± 0.13
276.15 K, x1 = 0.00834 | 1006.24 ± 0.15
276.15 K, x1 = 0.01081 | 1008.06 ± 0.13
276.15 K, x1 = 0.01421 | 1010.58 ± 0.13
277.15 K, x1 = 0.00244 | 1001.82 ± 0.13
277.15 K, x1 = 0.00291 | 1002.17 ± 0.13
277.15 K, x1 = 0.00483 | 1003.61 ± 0.13
277.15 K, x1 = 0.00553 | 1004.13 ± 0.13
277.15 K, x1 = 0.00799 | 1005.97 ± 0.13
277.15 K, x1 = 0.00834 | 1006.23 ± 0.13
277.15 K, x1 = 0.01081 | 1008.05 ± 0.13
277.15 K, x1 = 0.01421 | 1010.54 ± 0.13
278.15 K, x1 = 0.00244 | 1001.8 ± 0.13
278.15 K, x1 = 0.00291 | 1002.15 ± 0.13
278.15 K, x1 = 0.00483 | 1003.58 ± 0.13
278.15 K, x1 = 0.00553 | 1004.1 ± 0.13
278.15 K, x1 = 0.00799 | 1005.92 ± 0.13
278.15 K, x1 = 0.00834 | 1006.18 ± 0.13
278.15 K, x1 = 0.01081 | 1007.99 ± 0.13
278.15 K, x1 = 0.01421 | 1010.45 ± 0.13
278.15 K, x1 = 0.01662 | 1012.18 ± 0.13
278.15 K, x1 = 0.019 | 1013.89 ± 0.13
278.15 K, x1 = 0.02321 | 1016.84 ± 0.13
278.15 K, x1 = 0.03185 | 1022.7 ± 0.13
278.15 K, x1 = 0.04218 | 1029.47 ± 0.13
278.15 K, x1 = 0.05184 | 1035.47 ± 0.13
278.15 K, x1 = 0.06068 | 1040.78 ± 0.14
278.15 K, x1 = 0.07071 | 1046.57 ± 0.14
279.15 K, x1 = 0.00244 | 1001.76 ± 0.13
279.15 K, x1 = 0.00291 | 1002.11 ± 0.13
279.15 K, x1 = 0.00483 | 1003.53 ± 0.13
279.15 K, x1 = 0.00553 | 1004.05 ± 0.13
279.15 K, x1 = 0.00799 | 1005.86 ± 0.13
279.15 K, x1 = 0.00834 | 1006.11 ± 0.13
279.15 K, x1 = 0.01081 | 1007.92 ± 0.13
279.15 K, x1 = 0.01421 | 1010.37 ± 0.13
280.15 K, x1 = 0.00244 | 1001.71 ± 0.13
280.15 K, x1 = 0.00291 | 1002.05 ± 0.13
280.15 K, x1 = 0.00483 | 1003.47 ± 0.13
280.15 K, x1 = 0.00553 | 1003.98 ± 0.13
280.15 K, x1 = 0.00799 | 1005.78 ± 0.13
280.15 K, x1 = 0.00834 | 1006.03 ± 0.13
280.15 K, x1 = 0.01081 | 1007.83 ± 0.13
280.15 K, x1 = 0.01421 | 1010.26 ± 0.13
281.15 K, x1 = 0.00244 | 1001.65 ± 0.13
281.15 K, x1 = 0.00291 | 1001.99 ± 0.13
281.15 K, x1 = 0.00483 | 1003.39 ± 0.13
281.15 K, x1 = 0.00553 | 1003.9 ± 0.13
281.15 K, x1 = 0.00799 | 1005.7 ± 0.13
281.15 K, x1 = 0.00834 | 1005.95 ± 0.13
281.15 K, x1 = 0.01081 | 1007.72 ± 0.13
281.15 K, x1 = 0.01421 | 1010.15 ± 0.13
282.15 K, x1 = 0.00244 | 1001.57 ± 0.13
282.15 K, x1 = 0.00291 | 1001.91 ± 0.13
282.15 K, x1 = 0.00483 | 1003.31 ± 0.13
282.15 K, x1 = 0.00553 | 1003.81 ± 0.13
282.15 K, x1 = 0.00799 | 1005.59 ± 0.13
282.15 K, x1 = 0.00834 | 1005.84 ± 0.13
282.15 K, x1 = 0.01081 | 1007.61 ± 0.13
282.15 K, x1 = 0.01421 | 1010.02 ± 0.13
283.15 K, x1 = 0.00244 | 1001.47 ± 0.13
283.15 K, x1 = 0.00291 | 1001.81 ± 0.13
283.15 K, x1 = 0.00483 | 1003.2 ± 0.13
283.15 K, x1 = 0.00553 | 1003.71 ± 0.13
283.15 K, x1 = 0.00799 | 1005.48 ± 0.13
283.15 K, x1 = 0.00834 | 1005.72 ± 0.13
283.15 K, x1 = 0.01081 | 1007.48 ± 0.13
283.15 K, x1 = 0.01421 | 1009.88 ± 0.13
288.15 K, x1 = 0.00244 | 1000.82 ± 0.15
288.15 K, x1 = 0.00291 | 1001.15 ± 0.11
288.15 K, x1 = 0.00483 | 1002.51 ± 0.13
288.15 K, x1 = 0.00553 | 1003 ± 0.13
288.15 K, x1 = 0.00799 | 1004.72 ± 0.16
288.15 K, x1 = 0.00834 | 1004.96 ± 0.11
288.15 K, x1 = 0.01081 | 1006.67 ± 0.13
288.15 K, x1 = 0.01421 | 1009.02 ± 0.13
288.15 K, x1 = 0.01662 | 1010.63 ± 0.13
288.15 K, x1 = 0.019 | 1012.22 ± 0.13
288.15 K, x1 = 0.02321 | 1015 ± 0.13
288.15 K, x1 = 0.03185 | 1020.53 ± 0.13
288.15 K, x1 = 0.04218 | 1026.9 ± 0.13
288.15 K, x1 = 0.05184 | 1032.59 ± 0.13
288.15 K, x1 = 0.06068 | 1037.58 ± 0.13
288.15 K, x1 = 0.07071 | 1043.01 ± 0.14
298.15 K, x1 = 0.00244 | 998.69 ± 0.17
298.15 K, x1 = 0.00291 | 999 ± 0.11
298.15 K, x1 = 0.00483 | 1000.3 ± 0.12
298.15 K, x1 = 0.00553 | 1000.76 ± 0.13
298.15 K, x1 = 0.00799 | 1002.41 ± 0.18
298.15 K, x1 = 0.00834 | 1002.63 ± 0.11
298.15 K, x1 = 0.01081 | 1004.26 ± 0.13
298.15 K, x1 = 0.01421 | 1006.48 ± 0.13
298.15 K, x1 = 0.01662 | 1008.05 ± 0.13
298.15 K, x1 = 0.019 | 1009.57 ± 0.13
298.15 K, x1 = 0.02321 | 1012.2 ± 0.13
298.15 K, x1 = 0.03185 | 1017.45 ± 0.13
298.15 K, x1 = 0.04218 | 1023.52 ± 0.13
298.15 K, x1 = 0.05184 | 1028.96 ± 0.13
298.15 K, x1 = 0.06068 | 1033.74 ± 0.13
298.15 K, x1 = 0.07071 | 1038.96 ± 0.14
308.15 K, x1 = 0.00244 | 995.62 ± 0.18
308.15 K, x1 = 0.00291 | 995.92 ± 0.11
308.15 K, x1 = 0.00483 | 997.16 ± 0.12
308.15 K, x1 = 0.00553 | 997.61 ± 0.13
308.15 K, x1 = 0.00799 | 999.19 ± 0.2
308.15 K, x1 = 0.00834 | 999.41 ± 0.12
308.15 K, x1 = 0.01081 | 1000.97 ± 0.13
308.15 K, x1 = 0.01421 | 1003.1 ± 0.13
308.15 K, x1 = 0.01662 | 1004.61 ± 0.13
308.15 K, x1 = 0.019 | 1006.07 ± 0.13
308.15 K, x1 = 0.02321 | 1008.61 ± 0.13
308.15 K, x1 = 0.03185 | 1013.65 ± 0.13
308.15 K, x1 = 0.04218 | 1019.45 ± 0.13
308.15 K, x1 = 0.05184 | 1024.66 ± 0.13
308.15 K, x1 = 0.06068 | 1029.26 ± 0.13
308.15 K, x1 = 0.07071 | 1034.27 ± 0.13
323.15 K, x1 = 0.00244 | 989.55 ± 0.17
323.15 K, x1 = 0.00291 | 989.84 ± 0.11
323.15 K, x1 = 0.00483 | 991.02 ± 0.12
323.15 K, x1 = 0.00553 | 991.45 ± 0.13
323.15 K, x1 = 0.00799 | 992.95 ± 0.19
323.15 K, x1 = 0.00834 | 993.16 ± 0.12
323.15 K, x1 = 0.01081 | 994.63 ± 0.13
323.15 K, x1 = 0.01421 | 996.66 ± 0.13
323.15 K, x1 = 0.01662 | 998.09 ± 0.13
323.15 K, x1 = 0.019 | 999.47 ± 0.13
323.15 K, x1 = 0.02321 | 1001.87 ± 0.13
323.15 K, x1 = 0.03185 | 1006.67 ± 0.13
323.15 K, x1 = 0.04218 | 1012.19 ± 0.13
323.15 K, x1 = 0.05184 | 1017.13 ± 0.13
323.15 K, x1 = 0.06068 | 1021.48 ± 0.13
323.15 K, x1 = 0.07071 | 1026.24 ± 0.13
333.15 K, x1 = 0.00244 | 984.67 ± 0.13
333.15 K, x1 = 0.00291 | 984.95 ± 0.13
333.15 K, x1 = 0.00483 | 986.09 ± 0.13
333.15 K, x1 = 0.00553 | 986.51 ± 0.13
333.15 K, x1 = 0.00799 | 987.96 ± 0.13
333.15 K, x1 = 0.00834 | 988.16 ± 0.13
333.15 K, x1 = 0.01081 | 989.6 ± 0.13
333.15 K, x1 = 0.01421 | 991.56 ± 0.13
333.15 K, x1 = 0.01662 | 992.96 ± 0.13
333.15 K, x1 = 0.019 | 994.26 ± 0.13
333.15 K, x1 = 0.02321 | 996.6 ± 0.13
333.15 K, x1 = 0.03185 | 1001.3 ± 0.13
333.15 K, x1 = 0.04218 | 1006.7 ± 0.13
333.15 K, x1 = 0.05184 | 1011.49 ± 0.13
333.15 K, x1 = 0.06068 | 1015.72 ± 0.13
333.15 K, x1 = 0.07071 | 1020.32 ± 0.13
